Data: patent publication US20230096028A1, “BICYCLIC HETEROCYCLYL COMPOUNDS AND USES THEREOF” (Revolution Medicines, Inc., priority 2019, published 2023)

Key:
[1] = target: T1, SOS1 catalytic domain (residues 564-1049) (Homo sapiens, UniProt Q07889); test: Potency Assay: binding affinity to SOS1 using Surface Plasmon Resonance (SPR); set-up: SOS1 catalytic domain (residues 564-1049) immobilized on a sensor chip; settings: immobilized SOS1 catalytic domain (residues 564-1049), read-out: SOS1 SPR Equilibrium Kd
T1 sequence (Q07889 564-1049): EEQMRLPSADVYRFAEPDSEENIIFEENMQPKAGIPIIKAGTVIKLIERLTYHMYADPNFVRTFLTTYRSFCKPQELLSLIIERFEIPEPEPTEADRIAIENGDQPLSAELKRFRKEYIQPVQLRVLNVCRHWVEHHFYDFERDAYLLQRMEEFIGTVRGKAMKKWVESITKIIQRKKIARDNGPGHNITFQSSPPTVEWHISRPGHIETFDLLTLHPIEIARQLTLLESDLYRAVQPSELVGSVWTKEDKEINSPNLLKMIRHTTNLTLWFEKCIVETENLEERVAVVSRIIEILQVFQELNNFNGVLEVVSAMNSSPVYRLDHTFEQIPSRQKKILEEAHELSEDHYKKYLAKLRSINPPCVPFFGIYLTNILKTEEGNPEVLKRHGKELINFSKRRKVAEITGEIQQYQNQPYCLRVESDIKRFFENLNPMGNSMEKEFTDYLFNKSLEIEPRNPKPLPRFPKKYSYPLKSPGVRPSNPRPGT
In short: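 Avi-tagged SOS1 catalytic domain captured on streptavidin chip (~6000 RU) in 0.01 M HEPES, 0.15 M NaCl, 0.05% P20. Compound dilution series flowed at 50 μL/min for association, then buffer for dissociation, with double reference subtraction. Kd derived from end-of-association binding response plotted against concentration.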

[2] = system: PC-9 cells (EGFR Ex19Del); test: Potency Assay: pERK (SOS1 pERK IC50 Assay, AlphaLISA SureFire Ultra p-ERK1/2); type: cell-based; settings: Homo sapiens; PC-9 cells (EGFR Ex19Del), 1 hour incubation, AlphaLISA p-ERK1/2; read-out: SOS1 pERK IC50
In short: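 PC-9 (EGFR Ex19Del) cells plated overnight, then treated 1 h at 37° C. with 10-point 3-fold dilutions (top 10 μM final) in duplicate. Lysate pERK1/2 measured by AlphaLISA SureFire Ultra; IC50 from 4-parameter sigmoidal fit.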

[3] = target: T1, SOS1 catalytic domain (residues 564-1049); test: Mode of Action Assay: inhibition of SOS1 nucleotide exchange activity (SOS1 TR-FRET IC50 Assay)
Method: The purpose of this assay was to characterize the inhibitory activity of compounds on SOS1 nucleotide exchange of KRAS. Data was reported as IC50 values based on the TR-FRET signal.
Note—the following protocol describes a procedure for monitoring the inhibition of SOS1 nucleotide exchange activity of wild-type KRAS in response to a compound of the invention.
The SOS1/compound mixture was incubated at room temperature with constant mixing on an orbital shaker for 20 minutes to allow the reaction to reach equilibrium. […] This mixture was prepared immediately before addition to the SOS1/compound mixture to prevent intrinsic nucleotide exchange. Then 5 μL of the pre-incubated SOS1/compound mixture and 7.5 μL of the KRAS mixture were added sequentially in a 384-well low volume black round bottom plate and incubated at room temperature with constant shaking for 30 minutes. Time-resolved fluorescence was measured on a PerkinElmer Envision plate reader.
Three replicates were performed for each compound. Data were normalized by the following: (Positive control−Sample signal)/(Positive control−negative control)*100. The data were fit using a four-parameter logistic fit.

Compound | Kd [1] [nM] | IC50 [2] [nM] | IC50 [3] [nM]
C[C@@H](Nc1nc(Cl)nc2c1CN(C(=O)N1CCOCC1)C2)c1cccc(C(F)(F)C2CN(C)CCO2)c1 (stereo partly drawn) [Example 485, 2-chloro-N-[(1R)-1-{3-[difluoro(4-methylmorpholin-2-yl)methyl]phenyl}ethyl]-6-(morpholine-4-carbonyl)-5H,6H,7H-pyrrolo[3,4-d]pyrimidin-4-amine] | < 400 | < 1000 | < 1000
CC(=O)N1CCN(C(=O)N2Cc3nc(Cl)nc(N[C@H](C)c4cccc(C(F)F)c4F)c3C2)CC1 [Example 394] | < 400 | < 1000 | < 1000
Cc1nc2c(c(N[C@H](C)c3cc(N)cc(C(F)(F)F)c3)n1)CN(S(=O)(=O)c1ccc(N)nc1)C2 [Example 36, (R)—N-(1-(3-amino-5-(trifluoromethyl)phenyl)ethyl)-6-((6-aminopyridin-3-yl)sulfonyl)-2-methyl-6,7-dihydro-5H-pyrrolo[3,4-d]pyrimidin-4-amine] | > 400 | > 1000 | > 1000
C[C@@H](Nc1nc(Cl)nc2c1CN(C(=O)C1(F)CNC1)C2)c1cccc(C(F)F)c1F [Example 282] | < 400 | < 1000 | < 1000
C[C@@H](Nc1nc(Cl)nc2c1CN(C(=O)N1C[C@H]3C[C@@H]1CN3)C2)c1cc(N)cc(C(F)(F)F)c1 [Example 360] | < 400 | > 1000 | < 1000
C[C@@H](Nc1nc(Cl)nc2c1CN(C(=O)C13CC(O)(C1)C3)CC2)c1cc(N)cc(C(F)(F)F)c1 [Example 193] | < 400 | > 1000 | > 1000
COC1(C(=O)N2Cc3nc(Cl)nc(N[C@H](C)c4cccc(C(F)(F)CO)c4)c3C2)COC1 [Example 241] | < 400 | < 1000 | < 1000
C[C@@H](Nc1nc(Cl)nc2c1CN(C(=O)N1C3CCC1COC3)C2)c1cccc(C(F)F)c1F [Example 396] | < 400 | < 1000 | < 1000
C[C@@H](Nc1nc(CO)nc2c1CN(C(=O)N1CCOCC1)C2)c1cccc(C(F)F)c1F [Example 348, (R)-(4-((1-(3-(difluoromethyl)-2-fluorophenyl)ethyl)amino)-2-(hydroxymethyl)-5,7-dihydro-6H-pyrrolo[3,4-d]pyrimidin-6-yl)(morpholino)methanone] | < 400 | > 1000 | < 1000
COC1(C(=O)N2Cc3nc(Cl)nc(N[C@H](C)c4cccc(C(F)(F)CN)c4F)c3C2)CCOCC1 [Example 526, N-[(1R)-1-[3-(2-amino-1,1-difluoroethyl)-2-fluorophenyl]ethyl]-2-chloro-6-(4-methoxyoxane-4-carbonyl)-5H,6H,7H-pyrrolo[3,4-d]pyrimidin-4-amine] | < 400 | < 1000 | < 1000
C[C@@H](Nc1nc(Cl)nc2c1CC(N1CCN(C3CC3)CC1)CC2)c1cccc(C(F)(F)CO)c1 (stereo partly drawn) [Example 434] | < 400 | < 1000 | < 1000
COc1ccc2c(c1)OCCN2C(=O)N1Cc2nc(Cl)nc(N[C@H](C)c3cc(N)cc(C(F)(F)F)c3)c2C1 [Example 140] | < 400 | < 1000 | > 1000
COC1CC(N)(C(=O)N2Cc3nc(Cl)nc(N[C@H](C)c4cccc(C(F)F)c4F)c3C2)C1 (stereo partly drawn) [Example 289] | < 400 | < 1000 | < 1000
C[C@@H](Nc1nc(Cl)nc2c1CN(C(=O)C1CN(C3COC3)C1)C2)c1cccc(C(F)F)c1F [Example 339] | < 400 | < 1000 | < 1000
C[C@@H](Nc1nc(Cl)nc2c1CN(C(=O)N1C[C@H]3COC[C@H]3C1)C2)c1cccc(C(F)F)c1F [Example 410] | < 400 | < 1000 | < 1000
COC1(C(=O)N2Cc3nc(Cl)nc(N[C@H](C)c4cccc(C(F)F)c4F)c3C2)COC1 [Example 489] | < 400 | < 1000 | < 1000

Compound | Kd [1] [nM] | IC50 [2] [nM] | IC50 [3] [nM]
C[C@@H](Nc1nc(Cl)nc2c1CN(C(=O)C1CCN1)C2)c1cccc(C(F)F)c1F (stereo partly drawn) [Example 286] | < 400 | < 1000 | < 1000
C[C@@H](Nc1nc(Cl)nc2c1CN(C(=O)c1cnc[nH]1)C2)c1cc(N)cc(C(F)(F)F)c1 [Example 108] | < 400 | < 1000 | < 1000
C[C@@H](Nc1nc(Cl)nc2c1CN(C(=O)N1CCN(C)CC1)C2)c1cccc(C(F)F)c1F [Example 430] | < 400 | < 1000 | < 1000
C[C@@H](Nc1nc(Cl)nc2c1CN(C(=O)C1(C)CCN(C3COC3)C1)C2)c1cccc(C(F)F)c1F (stereo partly drawn) [Example 341] | < 400 | < 1000 | < 1000
C[C@@H](Nc1nc(Cl)nc2c1CN(C(=O)C1CCN3CCOCC13)C2)c1cccc(C(F)F)c1F (stereo partly drawn) [Example 318] | < 400 | > 1000 | < 1000
C[C@@H](Nc1nc(Cl)nc2c1CN(C(=O)C1(O)COC1)C2)c1cccc(C(F)(F)F)c1 [Example 279] | > 400 | < 1000 | < 1000
Cc1nc2c(c(N[C@H](C)c3cc(N)cc(C(F)(F)F)c3)n1)CC(C(=O)N1CCOCC1)C2 (stereo partly drawn) [Example 45, [4-[[(1R)-1-[3-amino-5-(trifluoromethyl)phenyl]ethyl]amino]-2-methyl-6,7-dihydro-5H-cyclopenta[d]pyrimidin-6-yl]-morpholino-methanone] | > 400 | < 1000 | < 1000
COC1(C(=O)N2Cc3nc(C)nc(N[C@H](C)c4cccc(C(F)(F)CO)c4)c3C2)CCOCC1 [Example 239] | < 400 | > 1000 | < 1000
C[C@@H](Nc1nc(Cl)nc2c1CN(C(=O)C1(N)COC1)C2)c1cccc(C(F)F)c1F [Example 285] | < 400 | < 1000 | < 1000
C[C@@H](Nc1nc(Cl)nc2c1CN(C(=O)C1(F)CCNCC1)C2)c1cc(N)cc(C(F)(F)F)c1 [Example 272] | < 400 | < 1000 | < 1000
CCc1nc2c(c(N[C@H](C)c3cc(N)cc(C(F)(F)F)c3)n1)CN(C(=O)N1CCOCC1)C2 [Example 128, N-[(1R)-1-[3-amino-5-(trifluoromethyl)phenyl]ethyl]-2-ethyl-6-(morpholine-4-carbonyl)-5H,6H,7H-pyrrolo[3,4-d]pyrimidin-4-amine] | < 400 | < 1000 | < 1000
COc1cnc(C(=O)N2Cc3nc(Cl)nc(N[C@H](C)c4cc(N)cc(C(F)(F)F)c4)c3C2)cc1OC [Example 59] | < 400 | < 1000 | < 1000
C[C@@H](Nc1nc(Cl)nc2c1CN(C(=O)C1CCN(C)C1)C2)c1cccc(C(F)F)c1F (stereo partly drawn) [Example 319] | < 400 | < 1000 | < 1000
C[C@@H](Nc1nc(Cl)nc2c1CN(C(=O)C1(N)CCOCC1)C2)c1cccc(C(F)F)c1F [Example 287] | < 400 | < 1000 | < 1000
C[C@@H](Nc1nc(Cl)nc2c1CN(C(=O)N1CCNCC1)C2)c1cccc(C(F)F)c1F [Example 407] | < 400 | < 1000 | < 1000
COC1(C(=O)N2Cc3nc(Cl)nc(N[C@H](C)c4cccc5c4OCC5(F)F)c3C2)CCOCC1 [Example 490] | < 400 | < 1000 | < 1000
